This is an account of results in patent US20250122192A1, “5-PYRIMIDINECARBOXAMIDE DERIVATIVES AND METHODS OF USING THE SAME” (Rgenta Therapeutics, Inc., priority 2021, published 2025).

Where only a bound is given, the exact number is not on record here.

The first experiment relates to PMS1. Description: Mini-gene reporter assay-PMS1. Format: cell-based. The following applies: Homo sapiens, HEK293, PMS1 mini-gene firefly luciferase reporter transiently transfected into HEK293 cells; read-out: PMS1 IC50. The source says: Biological Activity of the Compounds of the Present Disclosure Mini-gene reporter assay-PMS1
Mini-gene reporter constructs for each target site can be constructed by first PCR amplifying the region-of-interest including the sequence of the alternatively skipped, sequences of the immediate upstream and downstream introns, and sequences of the immediate upstream and downstream exons. Then the 3′end of the amplified sequence can be ligated to a firefly luciferase reporter gene and cloned into the pcDNA3.1 vector backbone. The final reporter construct can be transiently transfected into HEK293 cells using Lipofectamine 3000 transfection reagents. Compounds that can induce the inclusion of the skipped exon in the reporter construct would increase the reporter firefly luciferase activity.
Test compounds may be diluted in duplicates and dispensed into an assay plate. Transient mini-gene reporter cell line stock is resuspended and dispensed into the assay plate. Assay plates are then centrifuged and incubated. A luciferase reagent (e.g. ONE-Glo firefly luciferase reagent from Promega®) may be added to the assay plate and the luminescence (RLU) signals recorded. PMS1 EC50 values may be determined by curve fitting in Levenberg-Marquardt algorithm.
For orientation: In a reporter assay the amount or activity of a reporter protein is the signal.
With `CCOc1nc(N2CC3CCC2CN3)ncc1C(=O)Nc1cn2cc(C)nc2c(C)n1` (centres unmarked) [Compound 53], the IC50 (commonly the concentration that gives 50% inhibition) lay in the range of 500 to 1000 nM.
On the same count and under the same terms, the value for `CCOc1nc(N2CCC3(CCCN3)CC2)ncc1C(=O)Nc1cn2cc(C)nc2c(C)n1` [Compound 54] was less than 500 nM; that for `CCOc1nc(N2C[C@@H]3C[C@H]2CN3)ncc1C(=O)Nc1cn2cc(C)nc2c(C)n1` [Compound 55] was greater than 3000 nM.
As for `CCOc1nc(N(C)[C@@H]2C[C@H]3CC[C@@H](C2)N3)ncc1C(=O)Nc1cn2cc(C)nc2c(C)n1` [Compound 56], the IC50 lay within 500 to 1000 nM.
On the same count and under the same terms, with `CCOc1nc(N(C)C2CCNCC2)ncc1C(=O)Nc1cn2cc(C)nc2c(C)n1` [Compound 57] the figure was less than 500 nM; with `CCOc1nc(N2CCC(CNC(C)C)CC2)ncc1C(=O)Nc1cn2cc(C)nc2c(C)n1` [Compound 58], 500 to 1000 nM; with `CCOc1nc(N2CC(C3CCCCCN3)C2)ncc1C(=O)Nc1cn2cc(C)nc2c(C)n1` (centres unmarked) [Compound 59], less than 500 nM.
Regarding `CCOc1nc(N2CCC3(CC2)COC(C)CN3)ncc1C(=O)Nc1cn2cc(C)nc2c(C)n1` (centres unmarked) [Compound 61], the IC50 is greater than 3000 nM.
Still for that read-out and setting: the value for `CCOc1nc(N2CCC(CNC)C2)ncc1C(=O)Nc1cn2cc(C)nc2c(C)n1` (centres unmarked) [Compound 62] was less than 500 nM; that for `CCOc1nc(N2CCNC(CC)C2)ncc1C(=O)Nc1cn2cc(C)nc2c(C)n1` (centres unmarked) [Compound 63] was 500 to 1000 nM; that for `CCOc1nc(N2CCC3(CCN3)CC2)ncc1C(=O)Nc1cn2cc(C)nc2c(C)n1` [Compound 64] was less than 500 nM.
Turning to `CCOc1nc(N2CCN[C@@H](C(C)C)C2)ncc1C(=O)Nc1cn2cc(C)nc2c(C)n1` [Compound 65], the IC50 was in the range of 500 to 1000 nM.
Same read-out and setting: with `CCOc1nc(N2C[C@@H](C)N[C@@H](C)C2)ncc1C(=O)Nc1cn2cc(C)nc2c(C)n1` [Compound 67] the figure was 500 to 1000 nM; with `CCOc1nc(N2CC3(CCNCC3)CC2C)ncc1C(=O)Nc1cn2cc(C)nc2c(C)n1` (centres unmarked) [Compound 68], greater than 3000 nM.
Still for that read-out and setting: the value for `CCNC1CCN(c2ncc(C(=O)Nc3cn4cc(C)nc4c(C)n3)c(OCC)n2)C1` (centres unmarked) [Compound 70] was less than 500 nM.
The same measure, in the same setting: with `CCOc1nc(N2CCNC(C)CC2)ncc1C(=O)Nc1cn2cc(C)nc2c(C)n1` (centres unmarked) [Compound 71] the figure was 500 to 1000 nM; with `CCOc1nc(N2CCC(C3CCCN3)CC2)ncc1C(=O)Nc1cn2cc(C)nc2c(C)n1` (centres unmarked) [Compound 73], 500 to 1000 nM.
As for `CCOc1nc(N2CCC(NCC3CC3)CC2)ncc1C(=O)Nc1cn2cc(C)nc2c(C)n1` [Compound 74], the IC50 was greater than 3000 nM.
On the same count and under the same terms, the value for `CCOc1nc(N2CCC(CNC)CC2)ncc1C(=O)Nc1cn2cc(C)nc2c(C)n1` [Compound 76] was less than 500 nM; that for `CCOc1nc(N2CC3CNCCC32)ncc1C(=O)Nc1cn2cc(C)nc2c(C)n1` (centres unmarked) [Compound 77] was less than 500 nM.
The same measure, in the same setting: with `CCOc1nc(N2CCC3(CNC3)C2)ncc1C(=O)Nc1cn2cc(C)nc2c(C)n1` [Compound 78] the figure was less than 500 nM.
Same read-out and setting: the value for `CCOc1nc(N2CCC3(CCNC3)C2)ncc1C(=O)Nc1cn2cc(C)nc2c(C)n1` (centres unmarked) [Compound 80] was less than 500 nM; that for `CCOc1nc(N(C)C2CCNC2)ncc1C(=O)Nc1cn2cc(C)nc2c(C)n1` (centres unmarked) [Compound 81] was 1000 to 3000 nM.
As for `CCOc1nc(N2CCC3(CCN3)C2)ncc1C(=O)Nc1cn2cc(C)nc2c(C)n1` (centres unmarked) [Compound 82], the IC50 fell in the range of 1000 to 3000 nM.
The same measure, in the same setting: the value for `CCOc1nc(N2C[C@H]3CNC[C@H]3C2)ncc1C(=O)Nc1cn2cc(C)nc2c(C)n1` [Compound 84] was less than 500 nM; that for `CCOc1nc(N2CC3CNC(C3)C2)ncc1C(=O)Nc1cn2cc(C)nc2c(C)n1` (centres unmarked) [Compound 85] was greater than 3000 nM.

Staying with this experiment, now noted: Homo sapiens; at 5 μM; PMS1 mini-gene firefly luciferase reporter in HEK293 cells; read-out: PMS1% Effect at 5 μM.
Consider `CCOc1nc(N2CCC(C3(O)CCNCC3)CC2)ncc1C(=O)Nc1cn2cc(C)nc2c(C)n1` [Compound 66], for which the activation at 5 µM was less than 50%.
Consider `CCOc1nc(N2CC(C3CCNC3)C2)ncc1C(=O)Nc1cn2cc(C)nc2c(C)n1` (centres unmarked) [Compound 69], for which the activation at 5 µM was in the range of 50 to 75%.
On the same count and under the same terms, the value for `CCOc1nc(N2CCC(C3(O)CNC3)CC2)ncc1C(=O)Nc1cn2cc(C)nc2c(C)n1` [Compound 75] was less than 50%.
